Assay results: patent US8772500B2, “TRPV3 modulators” (AbbVie Inc., priority 2011, dated 2014)
pIC50: −log10 of the molar value.

Experiments:
human TRPV3 = molecular target: T1, human TRPV3 (Homo sapiens, UniProt Q8NET8); test: In vitro antagonism of recombinant human TRPV3 activation (FLIPR Tetra calcium assay, 2-APB as agonist); type: cell-based; conditions: HEK293 cells stably expressing human TRPV3; 2-APB 80 μM; range class; read-out: IC50 (reported range)
T1 construct: expressed in transfected cells
T1 sequence (Q8NET8 1-790): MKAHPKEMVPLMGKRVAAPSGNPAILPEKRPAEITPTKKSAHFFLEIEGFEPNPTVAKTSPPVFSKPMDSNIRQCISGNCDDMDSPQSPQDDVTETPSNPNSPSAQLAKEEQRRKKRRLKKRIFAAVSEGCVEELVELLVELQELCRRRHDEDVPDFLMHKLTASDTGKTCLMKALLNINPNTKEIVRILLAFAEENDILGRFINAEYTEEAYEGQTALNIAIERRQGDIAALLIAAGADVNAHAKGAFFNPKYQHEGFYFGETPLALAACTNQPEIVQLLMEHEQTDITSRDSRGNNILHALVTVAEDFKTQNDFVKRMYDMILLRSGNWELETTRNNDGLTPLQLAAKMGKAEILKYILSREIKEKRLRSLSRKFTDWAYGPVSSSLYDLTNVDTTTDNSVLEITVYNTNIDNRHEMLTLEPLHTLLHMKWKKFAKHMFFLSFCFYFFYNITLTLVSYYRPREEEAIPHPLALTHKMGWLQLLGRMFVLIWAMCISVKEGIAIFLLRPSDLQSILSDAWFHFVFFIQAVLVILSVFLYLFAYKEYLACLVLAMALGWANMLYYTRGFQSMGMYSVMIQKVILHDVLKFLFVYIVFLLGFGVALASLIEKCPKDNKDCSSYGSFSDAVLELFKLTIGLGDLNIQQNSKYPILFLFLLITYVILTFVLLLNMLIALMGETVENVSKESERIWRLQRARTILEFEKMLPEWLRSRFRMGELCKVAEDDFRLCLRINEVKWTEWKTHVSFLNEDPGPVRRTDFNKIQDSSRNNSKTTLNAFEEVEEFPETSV
Description: Test compounds were evaluated for ability to antagonize the activation of recombinant human TRPV3 using FLIPR® Tetra cellular screening. Specifically, on the day prior to the experiment recombinant HEK293 cells that stably express human TRPV3 were removed from tissue culture flasks and plated in growth medium at 20,000 cells/well into Poly-d-lysine coated black/clear 384-well Plate (Corning, 3845) using a Multidrop® dispenser (ThermoScientific, Waltham, Mass.). Prior to the start of the assay, the medium was removed by aspiration, and cells were loaded with 30 μL no-wash FLIPR® Calcium-4 dye (λEX=470-495 nm, λEM=515-575 nm; Molecular Devices, Sunnyvale, Calif.). The cells were then incubated for 90-120 minutes in the dark prior to addition of the test compound.
A double-addition protocol was used. The test compound (i.e., the TRPV3 antagonist) was added at the 10 second time point, followed by the addition of a TRPV3 agonist three minutes later. Each test compound evaluated was first dissolved in DMSO to prepare a 10 mM stock solution. A solution (5×) of the test compound was then prepared in DPBS (Dulbecco's Phosphate Buffered Saline) and 10 μL of that solution was added to the cells at a delivery rate of 40 μL/sec. The TRPV3 agonist used to activate human TRPV3 expressed by the […] was 2-aminoethoxy-diphenyl borate (2-APB; Tocris Cookson, Ellisville, Mo.) at 80 μM. Final assay volume was 50 μL. Total length of an experimental run was 10 minutes.
Changes in fluorescence were measured over time using the FLIPR® instrument. The intensity of the fluorescence was captured and digitally transferred to an interfaced computer. The maximum response minus minimum response was calculated and expressed as the percentage of the maximum 2-APB response in the absence of antagonist. The concentration of 2-APB corresponds to its EC80.
Table 1 reports the IC50 values measured for the test compounds as human TRPV3 antagonists. […] Actual measured values are shown parenthetically after the reported range. In most cases, the values reported are average values from at least two runs (i.e., n≧2).

[1] = In vitro rat microsomal stability assay; type: in vitro ADME, rat (Sprague-Dawley); conditions: Sprague-Dawley, rat, 0.5 h, 0.5 μM, pH 7.4
Description: (§1) Test compounds were evaluated for metabolic stability in an in vitro rat microsomal stability assay using rat (Sprague-Dawley, from BD Biosciences) liver microsomes and/or an in vitro human microsomal stability assay using human (Xenotech) liver microsomes. […] Incubations were carried out at 37° C. with a final incubation volume of 135 μL. […] A 1.5 μL aliquot of reduced nicotine adenine disphosphonucleotide (NADPH) (Chem-Impex Int'L Inc., Lot 12532024) was also added to the time-zero plates.

[2] = In vitro human microsomal stability assay; type: in vitro ADME; conditions: human, 0.5 h, 0.5 μM, pH 7.4
Description: as §1

Row | SMILES | pIC50 (human TRPV3) | RAT MICROSOMAL STABILITY (% REMAINING AFTER 30 MINUTES) [1] [%] | HUMAN MICROSOMAL STABILITY (% REMAINING AFTER 30 MINUTES) [2] [%]
1 | NC1CCCC1C(O)C1(c2ccc(Cl)c(Cl)c2)CCC1 (centres unmarked) [Example 215, (2-aminocyclopentyl) [1-(3,4-dichlorophenyl)cyclobutyl]methanol] | 6.00 to 6.30 | – | –
2 | OC(c1ncccn1)C1(c2ccc(OC(F)(F)F)cc2)CCC1 (centres unmarked) [Example 31, pyrimidin-2-yl{1-[4-(trifluoromethoxy)phenyl]cyclobutyl}methanol] | 5.30 to 5.96 | – | –
3 | NC1CCCCC1C(O)C1(c2ccc(C(F)(F)F)cc2)CCC1 (centres unmarked) [Example 207, (2-aminocyclohexyl){1-[4-(trifluoromethyl)phenyl]cyclobutyl}methanol] | 5.30 to 5.96 | – | –
4 | OC(c1ccccn1)C1(c2ccc(F)c(F)c2)CCOCC1 (centres unmarked) [Example 63, [4-(3,4-difluorophenyl)tetrahydro-2H-pyran-4-yl](pyridin-2-yl)methanol] | 4.70 to 5.29 | – | –
5 | CC(c1ccc(C(F)(F)F)cc1)C1(C(O)c2ccccn2)CCC1 (centres unmarked) [Example 53, pyridin-2-yl(1-{1-[4-(trifluoromethyl)phenyl]ethyl}cyclobutyl)methanol] | 5.30 to 5.96 | – | –
6 | CC(c1cccc(Cl)c1)C1(C(O)c2ccccn2)CCC1 (centres unmarked) [Example 44, {1-[1-(3-chlorophenyl)ethyl]cyclobutyl}(pyridin-2-yl)methanol] | 4.70 to 5.29 | – | –
7 | OC(c1ncccn1)C1(c2ccccc2OC(F)(F)F)CCC1 (centres unmarked) [Example 36, pyrimidin-2-yl{1-[2-(trifluoromethoxy)phenyl]cyclobutyl}methanol] | 4.70 to 5.29 | – | –
8 | OC(CC1(c2ccc(Cl)c(Cl)c2)CCC1)c1ccccn1 (centres unmarked) [Example 73, 2-[1-(3,4-dichlorophenyl)cyclobutyl]-1-(pyridin-2-yl)ethanol] | 5.30 to 5.96 | – | –
9 | OC(c1ccccn1)C1(c2ccc(C(F)(F)F)cc2)CCOC1 (centres unmarked) [Example 78, pyridin-2-yl{3-[4-(trifluoromethyl)phenyl]tetrahydrofuran-3-yl}methanol] | 5.30 to 5.96 | – | –
10 | OC(c1ncccn1)C1(c2cccc(F)c2)CCC1 (centres unmarked) [Example 33, [1-(3-fluorophenyl)cyclobutyl](pyrimidin-2-yl)methanol] | 4.70 to 5.29 | – | –
11 | CC(c1ccccc1F)C1(C(O)c2ccccn2)CCC1 (centres unmarked) [Example 48, {1-[1-(2-fluorophenyl)ethyl]cyclobutyl}(pyridin-2-yl)methanol] | 4.70 to 5.29 | – | –
12 | OC(CC1(c2ccc(F)cc2)CCC1)c1ccccn1 (centres unmarked) [Example 70, 2-[1-(4-fluorophenyl)cyclobutyl]-1-(pyridin-2-yl)ethanol] | 4.70 to 5.29 | – | –
13 | OC(c1ccccn1)C1(c2cccc(Cl)c2)COC1 (centres unmarked) [Example 86, [3-(3-chlorophenyl)oxetan-3-yl](pyridin-2-yl)methanol] | 5.30 to 5.96 | – | –
14 | OC(c1ccccn1)C1(c2cccc(OC(F)(F)F)c2)CCOC1 (centres unmarked) [Example 80, pyridin-2-yl{3-[3-(trifluoromethoxy)phenyl]tetrahydrofuran-3-yl}methanol] | 5.30 to 5.96 | – | –
15 | OC(c1ccccn1)C1(c2ccc(F)cc2)CCOCC1 (centres unmarked) [Example 62, [4-(4-fluorophenyl)tetrahydro-2H-pyran-4-yl](pyridin-2-yl)methanol] | 4.70 to 5.29 | – | –
16 | N[C@H]1CCC[C@@H]1[C@H](O)C1(c2ccc(Cl)c(Cl)c2)CCC1 [Example 219, (S)-[(1S,2S)-2-aminocyclopentyl][1-(3,4-dichlorophenyl)cyclobutyl]-methanol] | 5.30 to 5.96 | – | –
17 | N[C@H]1CCC[C@H]1[C@@H](O)C1(c2ccc(Cl)c(Cl)c2)CCC1 [Example 218, (R)-[(1R,2S)-2-aminocyclopentyl][1-(3,4-dichlorophenyl)cyclobutyl]-methanol] | 5.30 to 5.96 | – | –
18 | CC1(O)CC(c2ccnc(C(F)(F)F)c2)(C(O)c2ccccn2)C1 [Example 302, cis-3-[(S)-hydroxy(pyridin-2-yl)methyl]-1-methyl-3-[2-(trifluoromethyl)-pyridin-4-yl]cyclobutanol] | 6.00 to 6.30 | – | –
19 | OC(CC1(c2ccc(Cl)cc2)CCC1)c1ccccn1 (centres unmarked) [Example 69, 2-[1-(4-chlorophenyl)cyclobutyl]-1-(pyridin-2-yl)ethanol] | 5.30 to 5.96 | – | –
20 | OC(c1ccccn1)C1(c2cccc(F)c2)CCOCC1 (centres unmarked) [Example 61, [4-(3-fluorophenyl)tetrahydro-2H-pyran-4-yl](pyridin-2-yl)methanol] | 4.70 to 5.29 | – | –
21 | OC(CC1(c2ccccc2)CCC1)c1ccccn1 (centres unmarked) [Example 68, 2-(1-phenylcyclobutyl)-1-(pyridin-2-yl)ethanol] | 5.30 to 5.96 | – | –
22 | OC(c1ccccn1)C1(c2ccccc2)CCOCC1 (centres unmarked) [Example 60, (4-phenyltetrahydro-2H-pyran-4-yl)(pyridin-2-yl)methanol] | 4.70 to 5.29 | – | –
23 | O=C1CC(c2ccnc(C(F)(F)F)c2)([C@H](O)c2ccccn2)C1 [Example 299, 3-[(S)-hydroxy(pyridin-2-yl)methyl]-3-[2-(trifluoromethyl)pyridin-4-yl]cyclobutanone] | – | >85 | >85
24 | OC(C1CCc2cccnc21)C1(c2ccc(OC(F)(F)F)cc2)CCC1 (stereo not drawn) [Example 175, (anti)-6,7-dihydro-5H-cyclopenta[b]pyridin-7-yl{1-[4-(trifluoromethoxy)-phenyl]cyclobutyl}methanol] | – | <0.01 | 29
25 | O=C1CC(c2cncc(C(F)(F)F)c2)(C(O)c2ccccn2)C1 (centres unmarked) [Example 295, 3-[hydroxy(pyridin-2-yl)methyl]-3-[5-(trifluoromethyl)pyridin-3-yl]cyclobutanone] | – | 8.2 | 70
26 | Nc1cccnc1C(O)C1(c2ccc(OC(F)(F)F)cc2)CCC1 (centres unmarked) [Example 121, (3-aminopyridin-2-yl){1-[4-(trifluoromethoxy)phenyl]cyclobutyl}methanol] | – | 0.18 | 41
27 | O=C1CC(c2ccc(C(F)(F)F)cc2)([C@@H](O)c2ccccn2)C1 [Example 165, 3-[(R)-hydroxy(pyridin-2-yl)methyl]-3-[4-(trifluoromethyl)phenyl]cyclobutanone] | – | 77 | 83
28 | OC(C1CCCc2cccnc21)C1(c2cccc(C(F)(F)F)c2)CCC1 (single isomer, unassigned) [Example 180, (syn)-5,6,7,8-tetrahydroquinolin-8-yl{1-[3-(trifluoromethyl)phenyl]-cyclobutyl}methanol] | – | <0.01 | <0.01
29 | OC(c1ccccn1)C1(c2ccnc(C(F)(F)F)c2)CC2(C1)OCCO2 (centres unmarked) [Example 297, pyridin-2-yl{2-[2-(trifluoromethyl)pyridin-4-yl]-5,8-dioxaspiro[3.4]oct-2-yl}methanol] | – | 2.0 | >85
30 | OC(C1CCc2cccnc21)C1(c2ccc(F)c(F)c2)CCC1 (stereo not drawn) [Example 171, (anti)-[1-(3,4-difluorophenyl)cyclobutyl][6,7-dihydro-5H-cyclopenta[b]-pyridin-7-yl]methanol] | – | <0.01 | 2.7
